We go through ten compounds from ChEMBL document CHEMBL1137368, “Antitumor activity of substituted E-3-(3,4,5-trimethoxybenzylidene)-1,3-dihydroindol-2-ones1” (2006).

Format in all cases: functional
Conditions in all cases: Homo sapiens; for TGI: read-out: pTGI (converted)

Experiment [1] has as its system Panel CNS (Carcinoma cell lines). Briefly: Anticancer activity against CNS cancer cell lines of NCI60 panel.
In experiment [2] the test system is Panel ovarian (Carcinoma cell lines). Description: Anticancer activity against ovarian cancer cell lines of NCI60 panel.
For experiment [3], the system named is Panel melanoma (Carcinoma cell lines). Description: Anticancer activity against melanoma cancer cell lines of NCI60 panel.
Experiment [4] relates to Panel breast (Carcinoma cell lines). Briefly: Anticancer activity against breast cancer cell lines of NCI60 panel.
Experiment [5] has as its system Panel prostate (Carcinoma cell lines). Briefly: Anticancer activity against prostate cancer cell lines of NCI60 panel.
Experiment [6] concerns Panel colon (Carcinoma cell lines). Description: Anticancer activity against colon cancer cell lines of NCI60 panel.
Experiment [7] relates to NSCLC. Description: Anticancer activity against NSCLC cancer cell lines of NCI60 panel.
The test system of experiment [8] is Panel renal (Carcinoma cell lines). Description: Anticancer activity against renal cancer cell lines of NCI60 panel.
Experiment [9] concerns Panel leukemia (Carcinoma cell lines). Description: Anticancer activity against leukemia cancer cell lines of NCI60 panel.

The structures appear in SMILES notation. Structures can show the parent of a compound that is named as a salt.

Usually GI50 stands for the concentration giving 50% growth inhibition. What is called LC50 is the concentration lethal to half of the exposed cells or organisms. A higher LC50 goes with a less lethal substance. With `COc1ccc2c(c1)/C(=C\c1cc(OC)c(OC)c(OC)c1)C(=O)N2`, the GI50 is 0.417 µM in experiment [1]; 0.676 µM in experiment [2]; 0.891 µM in experiment [3]; 0.398 µM in [4]; 0.692 µM in experiment [5]; 0.182 µM in experiment [6]. The figures for the GI50 in experiment [7], in [8] and in experiment [9] were 1.12 µM, 0.575 µM and 0.0871 µM, respectively. Also, the LC50 in [1] was 95.5 µM; in experiment [2] it was 41.7 µM; in experiment [3], 95.5 µM; in experiment [4], 50.1 µM; in experiment [6], 83.2 µM; in experiment [8] it was 91.2 µM. Also, the TGI in experiment [1] was 12.6 µM; in experiment [2], 15.5 µM; in [3], 41.7 µM; in experiment [4] it was 14.8 µM; in [6] it was 32.4 µM; in experiment [7] it was 58.9 µM. For the same compound, the results for the TGI in [8] and in experiment [9] were 19.1 µM and 11.2 µM, respectively.

`COc1cc(/C=C2/C(=O)Nc3cccc(Cl)c32)cc(OC)c1OC`: the GI50 in experiment [1] was 61.7 µM; in [2], 89.1 µM; in [4] it was 85.1 µM; in experiment [7] it was 75.9 µM; in experiment [8], 61.7 µM; in experiment [9], 2.4 µM. Besides, the TGI in experiment [1] was 97.7 µM; in [9], 16.2 µM.

Regarding `COc1cc2c(cc1C)NC(=O)/C2=C/c1cc(OC)c(OC)c(OC)c1`, the GI50 in experiment [1] is 41.7 µM; in experiment [2], 75.9 µM; in experiment [3], 74.1 µM; in experiment [6], 85.1 µM; in [7] it was 57.5 µM; in [8], 55 µM. In experiment [9], it took 18.2 µM to inhibit growth by half (GI50). The TGI was 83.2 µM in [1]; 93.3 µM in [4]; 81.3 µM in experiment [7]; 89.1 µM in experiment [8]; 52.5 µM in experiment [9].

`COc1cc(/C=C2/C(=O)Nc3ccc(F)cc32)cc(OC)c1OC`: the GI50 in [1] is 33.1 µM; in experiment [2], 44.7 µM; in [3] it was 37.2 µM; in experiment [4] it was 9.55 µM; in experiment [5], 27.5 µM; in [6], 30.9 µM. The GI50 in experiment [7] was 26.9 µM; in experiment [8], 34.7 µM; in experiment [9], 14.1 µM. Moreover, the results for the TGI in experiment [1], in experiment [4] and in [7] were 85.1 µM, 87.1 µM and 91.2 µM, respectively.

With `COc1cc(/C=C2/C(=O)Nc3ccc(O)cc32)cc(OC)c1OC`, the GI50 is 8.71 µM in experiment [1]; 14.1 µM in experiment [2]; 10 µM in experiment [3]; 9.12 µM in experiment [4]; 2.4 µM in [5]; 12.3 µM in experiment [6]. Further, the GI50 was 11.7 µM in experiment [7], 14.1 µM in experiment [8] and 3.02 µM in [9]. The 50% lethal concentration (LC50) in [1] was 91.2 µM; in experiment [2], 93.3 µM; in experiment [3], 69.2 µM; in experiment [4], 97.7 µM; in experiment [6], 83.2 µM; in experiment [7], 89.1 µM. The same compound gave an LC50 in experiment [8] of 83.2 µM. In addition, the TGI in experiment [1] is 41.7 µM; in experiment [2], 47.9 µM; in experiment [3] it was 27.5 µM; in experiment [4], 52.5 µM; in [5], 19.1 µM; in experiment [6] it was 47.9 µM. Also, the TGI was 40.7 µM in experiment [7], 44.7 µM in experiment [8] and 30.9 µM in experiment [9].

As to `COc1cc(/C=C2/C(=O)Nc3ccccc32)cc(OC)c1OC`, the GI50 was 12.3 µM in experiment [1]; 24.5 µM in [2]; 20 µM in [3]; 19.1 µM in experiment [4]; 18.6 µM in [5]; 15.1 µM in [6]. Besides, the GI50 is 18.6 µM in experiment [7], 18.6 µM in [8] and 7.59 µM in experiment [9]. Moreover, the TGI in experiment [1] is 85.1 µM; in experiment [2], 95.5 µM; in [3], 81.3 µM; in experiment [4], 77.6 µM; in experiment [6], 75.9 µM; in experiment [7], 85.1 µM. For the same compound, the figures for the TGI in experiment [8] and in [9] were 75.9 µM and 87.1 µM, respectively.

For `COc1cc(/C=C2/C(=O)N(c3ccccc3)c3ccccc32)cc(OC)c1OC`, the GI50 was 6.03 µM in experiment [1]; 10 µM in experiment [2]; 7.41 µM in experiment [3]; 8.32 µM in experiment [4]; 3.16 µM in experiment [5]; 5.75 µM in experiment [6]. The GI50 was 9.33 µM in [7], 5.75 µM in experiment [8] and 2.29 µM in experiment [9]. In addition, the LC50 in [1] was 72.4 µM; in [2], 83.2 µM; in experiment [3], 52.5 µM; in experiment [6] it was 67.6 µM; in [7], 83.2 µM; in experiment [8] it was 64.6 µM. The TGI in experiment [1] is 30.9 µM; in experiment [2] it was 32.4 µM; in experiment [3], 20.9 µM; in [4] it was 53.7 µM; in [5], 16.2 µM; in experiment [6] it was 26.9 µM. The TGI in [7] was 36.3 µM; in experiment [8], 23.4 µM; in [9], 14.1 µM.

Regarding `COc1cc(/C=C2/C(=O)Nc3ccc(Cl)cc32)cc(OC)c1OC`, the GI50 in [1] was 17.4 µM; in experiment [2], 17 µM; in [3], 28.2 µM; in experiment [4], 15.8 µM; in experiment [5], 2.95 µM; in experiment [6] it was 8.32 µM. In addition, the GI50 in experiment [7] was 20.9 µM; in experiment [8] it was 15.8 µM; in experiment [9], 8.71 µM. Besides, the TGI in experiment [1] was 56.2 µM; in experiment [2], 77.6 µM; in [4], 56.2 µM; in [6], 93.3 µM; in experiment [7], 74.1 µM; in experiment [8], 64.6 µM.

On to `COc1cc(/C=C2/C(=O)N(C)c3ccccc32)cc(OC)c1OC`, for which the GI50 is 9.55 µM in [1]; 18.2 µM in [2]; 17.4 µM in experiment [3]; 19.5 µM in experiment [4]; 10.5 µM in experiment [5]; 13.5 µM in experiment [6]. Further, the GI50 in experiment [7] is 18.2 µM; in experiment [8], 12.3 µM; in [9], 7.24 µM. The TGI in experiment [1] was 81.3 µM; in [2], 81.3 µM; in experiment [3] it was 43.7 µM; in [4] it was 77.6 µM; in experiment [6], 61.7 µM; in experiment [7], 67.6 µM. Moreover, the TGI in experiment [8] was 61.7 µM; in experiment [9], 70.8 µM.

Turning to `CC[C@]1(O)C[C@H]2CN(CCc3c([nH]c4ccccc34)[C@@](C(=O)OC)(c3cc4c(cc3OC)N(C=O)[C@H]3[C@@](O)(C(=O)OC)[C@H](OC(C)=O)[C@]5(CC)C=CCN6CC[C@]43[C@@H]65)C2)C1` [VINCRISTINE SULFATE], the GI50 is 0.126 µM in experiment [1]; 0.316 µM in experiment [2]; 0.158 µM in [3]; 0.316 µM in experiment [4]; 0.126 µM in experiment [5]; 0.1 µM in experiment [6]. Further, the GI50 was 0.251 µM in experiment [7], 0.316 µM in experiment [8] and 0.1 µM in [9]. The TGI in [1] was 6.31 µM; in experiment [2] it was 20 µM; in [3], 7.94 µM; in experiment [4] it was 7.94 µM; in [5], 6.31 µM; in experiment [6] it was 3.98 µM. The TGI in experiment [7] was 15.8 µM; in [8], 20 µM; in [9], 15.8 µM.
